Values of other authors, collected in US20130144636A1, “Method and System for Predicting Adverse Drug Reactions Using BioAssay Data” (The Board of Trustees of the Leland Stanford, Junior, …, priority 2011, published 2013).
Like-named read-outs stand apart in the source and are kept apart here.

How the values were obtained:
[1] = system: murine bone marrow; settings: in vivo murine bone marrow micronucleus tests
[2] = in vitro mutagenesis tests such as the Ames test
[3] = FDA drug label, DRUGDEX or literature case report
[4] = system: interleukin-1 (IL-1); settings: in vitro
[5] = target: glutathione-S-transferase μ (GSTP1) (Homo sapiens, UniProt P09211)
Chain of glutathione-S-transferase μ (GSTP1) (P09211 2-210 limits assumed): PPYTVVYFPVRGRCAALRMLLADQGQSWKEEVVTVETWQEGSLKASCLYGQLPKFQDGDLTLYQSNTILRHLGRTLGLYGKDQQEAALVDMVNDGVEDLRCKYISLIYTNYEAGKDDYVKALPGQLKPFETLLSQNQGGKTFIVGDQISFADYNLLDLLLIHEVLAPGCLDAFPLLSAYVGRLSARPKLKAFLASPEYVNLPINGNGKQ

Oc1ccc(O)cc1 [hydroquinone]
genotoxic carcinogenic activity [1]: genotoxic carcinogenic activity | genotoxic carcinogenic activity ([1]; listed as Hydroquinone): carcinogenic | mutagenic activity in vitro [2]: but not in in vitro mutagenesis tests | mutagenic activity in vitro ([2]; listed as Hydroquinone): inactive

Oc1c(I)cc(Cl)c2cccnc12 [clioquinol]
known adverse drug reaction in humans [3]: associated with subacute myelo-optic neuropathy (SMON) syndrome

CC(=O)Oc1cccc2c1C(=O)c1c(OC(C)=O)cc(C(=O)O)cc1C2=O [diacerein]
inhibition of IL-1 synthesis [4]: directly inhibits the synthesis

CC(=O)Oc1ccccc1C(=O)Nc1ncc([N+](=O)[O-])s1 [nitazoxanide]
inhibition of enzymatic activity [5]: inhibit the enzymatic activity
